Entries after “also recorded” stand apart in the source; their conditions may differ.
What was measured:
[1] = test system: SDF1 promoter; experiment: SDF1 promoter luciferase reporter assay (pGL3b.SDF1.full) in HMEC-1; format: cell-based, human; details: 0.1 mM cobalt chloride, 12 hours, HMEC-1 transfected with pGL3b.SDF1.full
Text: The 1.4 kb 5′ SDF1 promoter region was cloned into the luciferase reporter vector pGL3-Basic (Promega) generating pGL.SDF1.full. 5′ deletion constructs were generated from pGL.SDF1.full using unique internal restriction sites SmaI/SacI, and XhoI. HBS-only contructs (HBS1, HBS2, or both) were generated by PCR and cloned into pGL3-Promoter (Promega). HBS1 was mutated using the mega-primer method (primers listed below) (Kammann et al., “Rapid Insertional Mutagenesis of DNA by Polymerase Chain Reaction (PCR),” Nucleic Acids Res. 17:5404 (1989), which is hereby incorporated by reference in its entirety). All constructs were sequenced to confirm their identity. Reporter plasmids were co-transfected with a constitutively expressed Renilla luciferase construct (pHRL-TK, Promega) into HMECs using the Genejammer reagent (Stratagene). 48 hours after transfection, cells were incubated in hypoxia or normoxia with and without 0.1 mM cobalt chloride (CoCl2) for 12 hours. Luciferase activity was determined using the Dual Luciferase System (Promega) and data were normalized to Renilla luciferase expression from at least four independent experiments. Co-transfection experiments using plasmids for oxygen […] HIF-1α (HIF-1.ΔODD) and the HIF-1α dominant negative (HIF-1.DN) were compared to control transfections using the appropriate empty vector (pcDNA3.1 and pCEP4, respectively) for each construct. […]

[2] = test system: CXCR4+ EPCs / HUVEC monolayers; experiment: Adhesion assay of DiI-labeled CXCR4+ EPCs to HUVEC monolayers; format: cell-based, human; details: monolayers pre-coated for 20 minutes with recombinant SDF-1
Experimental: Confluent HUVEC monolayers were subjected to normoxic or hypoxic culture for 6 hours. Human SDF-1αβ/PBSF (100 ng/ml, Sigma) was added where indicated. DiI-labeled EPCs (5×10^4) in EBM/0.5% FBS were added to each preconditioned monolayer and pre-adhesion fluorescence was measured using a Cytofluor 2320 (Millipore). After 3 hours, nonadherent cells were washed away, and post-adhesion fluorescence was measured. The percentage of adherent
cells was calculated using the following formula: [formula] Results are representative of three independent experiments.
HIF-1α siRNA (Berra et al, “HIF Prolyl-hydroxylase 2 is the Key Oxygen Sensor Setting Low Steady-state Levels of HIF-1α in Normoxia,” Embo. J. 22:4082-4090 (2003), which is hereby incorporated by reference in its entirety) (synthesized by Qiagen) was transfected into HUVECs using RNAiFect (Qiagen) in parallel with Lamin A/C and FITC-labeled control siRNAs according to the manufacturer=3 s protocol. Cells were treated with normoxic or hypoxic conditions starting 24 hours following transfection. Gene expression and adhesion assays were performed at 48 hours.

[3] = test system: EPCs; experiment: Migration assay (modified transwell) of EPCs; format: cell-based, human; details: 6 hour migration period
Experimental: Migration was studied using a modified transwell assay. EPCs (5×10^4) were seeded onto ChemoTx filters (5.7 mm, 8 μm pore, Neuro Probe) in EBM/0.5% FBS. […] Following the 6 hour migration period, nonmigrating cells were completely wiped from the top surface of the membrane. Migrating cells adherent to the undersurface of the filters were quantified using DAPI staining (Vector) with Kodak 1D software. Results are indicative of four independent experiments.

[4] = target: CXCR4 on human endothelial progenitor cells (EPCs) (human) (UniProt P61073); experiment: cell-based or functional assay
UniProt P61073, sequence (P61073 whole entry): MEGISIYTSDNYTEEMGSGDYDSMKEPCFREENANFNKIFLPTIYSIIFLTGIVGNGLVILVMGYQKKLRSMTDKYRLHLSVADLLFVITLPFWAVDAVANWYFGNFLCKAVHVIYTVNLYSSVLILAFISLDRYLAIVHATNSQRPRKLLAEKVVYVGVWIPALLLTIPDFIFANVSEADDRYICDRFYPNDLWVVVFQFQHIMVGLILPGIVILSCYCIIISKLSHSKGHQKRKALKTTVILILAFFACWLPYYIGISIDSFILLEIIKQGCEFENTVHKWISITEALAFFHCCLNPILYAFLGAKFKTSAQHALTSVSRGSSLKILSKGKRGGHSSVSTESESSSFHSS

Compound: [Cl][Co][Cl] [cobalt chloride]
- SDF1-specific luciferase expression [1]: four-fold

Compound: recombinant SDF-1: Recombinant human SDF-1αβ/PBSF (Sigma), chemokine
- adhesion of CXCR4+ EPCs to normoxic HUVEC monolayers [2]: Increased adhesion; also recorded: adhered more EPCs
- EPC migration, effect in words [3]: EPC migration increased

Compound: neutralizing CXCR4 antibody (Clone 44716, R&D Systems)
- EPC migration toward hypoxia-conditioned media after preincubating EPCs with neutralizing CXCR4 antibodies (HM+ab) [4]: 175 cells/hpf

From patent US20060154860A1, “Manipulating stem-progenitor cell trafficking to injured tissue and/or tumors by altering HIF-1 and/or SDF-1 activity” (priority 2004, published 2006)
